Experimental data reported in the NIST ThermoML archive (doi:10.1021/acs.jced.7b00769).
± gives the expanded uncertainty stated by the source.

Assay: xn = mol fraction of the nth substance listed
Conditions: Gas, isochoric method

Work on FC(F)(F)/C=C/Cl [(E)-1-chloro-3,3,3-trifluoroprop-1-ene] + CC(C)C yielded a specific volume (303.15 K, 113.3 kPa, x2 = 0.125) of 0.174 ± 0.0015 m3/kg, a specific volume (303.15 K, 186.5 kPa, x2 = 0.564) of 0.1429 ± 0.0009 m3/kg and a specific volume (308.15 K, 115.4 kPa, x2 = 0.125) of 0.1741 ± 0.0014 m3/kg. The specific volume (308.15 K, 190.1 kPa, x2 = 0.564) was 0.1429 ± 0.0027 m3/kg, the specific volume (313.15 K, 117.5 kPa, x2 = 0.125) was 0.1741 ± 0.0028 m3/kg and the specific volume (313.15 K, 193.7 kPa, x2 = 0.564) was 0.143 ± 0.0027 m3/kg. It also gave a specific volume (313.15 K, 197.4 kPa, x2 = 0.453) of 0.1261 ± 0.0027 m3/kg, a specific volume (318.15 K, 119.6 kPa, x2 = 0.125) of 0.1742 ± 0.0012 m3/kg and a specific volume (318.15 K, 197.5 kPa, x2 = 0.564) of 0.143 ± 0.0027 m3/kg. The specific volume (318.15 K, 200.9 kPa, x2 = 0.453) was 0.1262 ± 0.0027 m3/kg, the specific volume (318.15 K, 340.9 kPa, x2 = 0.746) was 0.0926 ± 0.0013 m3/kg and the specific volume (323.15 K, 121.8 kPa, x2 = 0.125) was 0.1742 ± 0.0032 m3/kg. The specific volume (323.15 K, 200.9 kPa, x2 = 0.564) was 0.143 ± 0.0027 m3/kg, the specific volume (323.15 K, 204.5 kPa, x2 = 0.453) was 0.1262 ± 0.0027 m3/kg and the specific volume (323.15 K, 347.6 kPa, x2 = 0.746) was 0.0926 ± 0.0012 m3/kg. For the same molecule, the specific volume (328.15 K, 123.8 kPa, x2 = 0.125) was 0.1742 ± 0.0025 m3/kg, the specific volume (328.15 K, 204.3 kPa, x2 = 0.564) was 0.143 ± 0.0027 m3/kg and the specific volume (328.15 K, 208 kPa, x2 = 0.453) was 0.1262 ± 0.0027 m3/kg. It also gave a specific volume (328.15 K, 353.9 kPa, x2 = 0.746) of 0.0926 ± 0.0012 m3/kg, a specific volume (333.15 K, 125.8 kPa, x2 = 0.125) of 0.1743 ± 0.0021 m3/kg and a specific volume (333.15 K, 207.8 kPa, x2 = 0.564) of 0.1431 ± 0.0027 m3/kg. It also gave a specific volume (333.15 K, 211.4 kPa, x2 = 0.453) of 0.1262 ± 0.0027 m3/kg, a specific volume (333.15 K, 360.6 kPa, x2 = 0.746) of 0.0926 ± 0.0007 m3/kg and a specific volume (333.15 K, 648.1 kPa, x2 = 0.865) of 0.0535 ± 0.0016 m3/kg. For the same molecule, the specific volume (338.15 K, 128.2 kPa, x2 = 0.125) was 0.1743 ± 0.002 m3/kg, the specific volume (338.15 K, 211.1 kPa, x2 = 0.564) was 0.1431 ± 0.0027 m3/kg and the specific volume (338.15 K, 214.9 kPa, x2 = 0.453) was 0.1263 ± 0.0027 m3/kg. The specific volume (338.15 K, 366.9 kPa, x2 = 0.746) was 0.0926 ± 0.0007 m3/kg, the specific volume (338.15 K, 576.1 kPa, x2 = 0.644) was 0.0499 ± 0.0016 m3/kg and the specific volume (338.15 K, 661.4 kPa, x2 = 0.865) was 0.0535 ± 0.0016 m3/kg. For the same molecule, the specific volume (343.15 K, 130.2 kPa, x2 = 0.125) was 0.1744 ± 0.0025 m3/kg, the specific volume (343.15 K, 214.6 kPa, x2 = 0.564) was 0.1431 ± 0.0027 m3/kg and the specific volume (343.15 K, 218.5 kPa, x2 = 0.453) was 0.1263 ± 0.0027 m3/kg. For the same molecule, the specific volume (343.15 K, 373.2 kPa, x2 = 0.746) was 0.0927 ± 0.0007 m3/kg, the specific volume (343.15 K, 587.5 kPa, x2 = 0.644) was 0.0499 ± 0.0016 m3/kg and the specific volume (343.15 K, 674.5 kPa, x2 = 0.865) was 0.0536 ± 0.0016 m3/kg. The specific volume (348.15 K, 132.2 kPa, x2 = 0.125) was 0.1744 ± 0.0032 m3/kg, the specific volume (348.15 K, 218 kPa, x2 = 0.564) was 0.1432 ± 0.0027 m3/kg and the specific volume (348.15 K, 222 kPa, x2 = 0.453) was 0.1263 ± 0.0027 m3/kg. It also gave a specific volume (348.15 K, 379.5 kPa, x2 = 0.746) of 0.0927 ± 0.0007 m3/kg, a specific volume (348.15 K, 598.7 kPa, x2 = 0.644) of 0.0499 ± 0.0016 m3/kg and a specific volume (348.15 K, 687.5 kPa, x2 = 0.865) of 0.0536 ± 0.0016 m3/kg. For the same molecule, the specific volume (353.15 K, 134.4 kPa, x2 = 0.125) was 0.1744 ± 0.0015 m3/kg, the specific volume (353.15 K, 221.4 kPa, x2 = 0.564) was 0.1432 ± 0.0027 m3/kg and the specific volume (353.15 K, 225.5 kPa, x2 = 0.453) was 0.1264 ± 0.0027 m3/kg. It also gave a specific volume (353.15 K, 385.8 kPa, x2 = 0.746) of 0.0927 ± 0.0007 m3/kg, a specific volume (353.15 K, 609.8 kPa, x2 = 0.644) of 0.0499 ± 0.0016 m3/kg and a specific volume (353.15 K, 700.5 kPa, x2 = 0.865) of 0.0536 ± 0.0016 m3/kg. The specific volume (358.15 K, 136.3 kPa, x2 = 0.125) was 0.1745 ± 0.0023 m3/kg, the specific volume (358.15 K, 224.6 kPa, x2 = 0.564) was 0.1432 ± 0.0027 m3/kg and the specific volume (358.15 K, 229 kPa, x2 = 0.453) was 0.1264 ± 0.0027 m3/kg. For the same molecule, the specific volume (358.15 K, 391.8 kPa, x2 = 0.746) was 0.0927 ± 0.0007 m3/kg, the specific volume (358.15 K, 620.8 kPa, x2 = 0.644) was 0.0499 ± 0.0016 m3/kg and the specific volume (358.15 K, 713.3 kPa, x2 = 0.865) was 0.0536 ± 0.0016 m3/kg. The specific volume (363.15 K, 138.3 kPa, x2 = 0.125) was 0.1745 ± 0.0064 m3/kg, the specific volume (363.15 K, 228.1 kPa, x2 = 0.564) was 0.1433 ± 0.0027 m3/kg and the specific volume (363.15 K, 232.1 kPa, x2 = 0.453) was 0.1264 ± 0.0027 m3/kg. For the same molecule, the specific volume (363.15 K, 398.1 kPa, x2 = 0.746) was 0.0927 ± 0.0007 m3/kg, the specific volume (363.15 K, 631.1 kPa, x2 = 0.644) was 0.05 ± 0.0016 m3/kg and the specific volume (363.15 K, 726.1 kPa, x2 = 0.865) was 0.0536 ± 0.0016 m3/kg. The specific volume (368.15 K, 140.4 kPa, x2 = 0.125) was 0.1745 ± 0.0015 m3/kg, the specific volume (368.15 K, 231.5 kPa, x2 = 0.564) was 0.1433 ± 0.0027 m3/kg and the specific volume (368.15 K, 235.6 kPa, x2 = 0.453) was 0.1264 ± 0.0027 m3/kg. The specific volume (368.15 K, 404.2 kPa, x2 = 0.746) was 0.0928 ± 0.0007 m3/kg, the specific volume (368.15 K, 642.6 kPa, x2 = 0.644) was 0.05 ± 0.0015 m3/kg and the specific volume (368.15 K, 738.7 kPa, x2 = 0.865) was 0.0536 ± 0.0016 m3/kg. The specific volume (373.15 K, 142.3 kPa, x2 = 0.125) was 0.1746 ± 0.0015 m3/kg, the specific volume (373.15 K, 234.8 kPa, x2 = 0.564) was 0.1433 ± 0.0027 m3/kg and the specific volume (373.15 K, 239.1 kPa, x2 = 0.453) was 0.1265 ± 0.0027 m3/kg. The specific volume (373.15 K, 410.7 kPa, x2 = 0.746) was 0.0928 ± 0.0007 m3/kg, the specific volume (373.15 K, 653.2 kPa, x2 = 0.644) was 0.05 ± 0.0015 m3/kg and the specific volume (373.15 K, 751.4 kPa, x2 = 0.865) was 0.0536 ± 0.0016 m3/kg. For the same molecule, the specific volume (378.15 K, 144.4 kPa, x2 = 0.125) was 0.1746 ± 0.0068 m3/kg, the specific volume (378.15 K, 238.2 kPa, x2 = 0.564) was 0.1434 ± 0.0027 m3/kg and the specific volume (378.15 K, 242.6 kPa, x2 = 0.453) was 0.1265 ± 0.0027 m3/kg. It also gave a specific volume (378.15 K, 416.9 kPa, x2 = 0.746) of 0.0928 ± 0.0007 m3/kg, a specific volume (378.15 K, 664.1 kPa, x2 = 0.644) of 0.05 ± 0.0015 m3/kg and a specific volume (378.15 K, 763.9 kPa, x2 = 0.865) of 0.0536 ± 0.0016 m3/kg. For the same molecule, the specific volume (383.15 K, 146.5 kPa, x2 = 0.125) was 0.1747 ± 0.016 m3/kg, the specific volume (383.15 K, 241.7 kPa, x2 = 0.564) was 0.1434 ± 0.0027 m3/kg and the specific volume (383.15 K, 246.4 kPa, x2 = 0.453) was 0.1265 ± 0.0027 m3/kg. For the same molecule, the specific volume (383.15 K, 423.2 kPa, x2 = 0.746) was 0.0928 ± 0.0007 m3/kg, the specific volume (383.15 K, 675 kPa, x2 = 0.644) was 0.05 ± 0.0015 m3/kg and the specific volume (383.15 K, 776.5 kPa, x2 = 0.865) was 0.0536 ± 0.0016 m3/kg.
